Paper PMC8268575 (International Journal of Molecular Sciences, 2021)
Entries after “also recorded” stand apart in the source; their conditions may differ.

Tests used:
HUVEC = experiment: Substrate cleavage in HUVEC, supernatant analysed by MALDI-TOF/TOF; format: in vitro ADME, human; conditions: 100 µM substrate
Method: (§1) The experiment was independently conducted 4 times. […] The supernatants were desalted and concentrated by use of C18 ZipTips (Merck-Millipore, Burlington, MA, USA) and eluted directly on the MALDI target in 70% acetonitrile/0.1% TFA. Subsequently, a MALDI matrix solution of 2.5 mg/mL α-cyano-4-hydroxycinnamic acid in 70% acetonitrile/0.1% TFA was applied on each spot, air-dried at room temperature, and the target was introduced into a 4800 plus MALDI TOF/TOF^TM Analyzer. Mass spectrometry (MS) spectra (mass range: 600–4000 Da) were acquired in positive reflector mode with a laser intensity of 5000. To confirm the identity of the most important peptides, MS/MS spectra were generated by use of collision induced dissociation with a laser intensity of 5500. Calibration was done during analysis using the 6-peptide mixture (AB Sciex, Framingham, MA, USA). Mass spectra were generated by use of the 4000 Series Explorer and analyzed by mMas. […] The ratio of the peak intensity of the cleaved substrate to the peak intensity of the intact substrate is an indication for the C-terminal cleavage of the substrates. To check for additional cleavage sites, a search for other product peaks was completed. Statistical analysis was performed using SPSS software version 27 (IBM). Two-way ANOVA analysis was conducted to examine the effect of the two independent variables (treatment duration and treatment option) on the ratio of the peak intensities.

HAoEC = experiment: Substrate cleavage in HAoEC, supernatant analysed by MALDI-TOF/TOF; format: in vitro ADME, human
Method: as §1

recombinant human PREP = target: T1, recombinant human PREP (Homo sapiens, UniProt P48147); experiment: Cleavage by recombinant PREP, MALDI-TOF/TOF; conditions: pH 7.4 (0.1 M potassium phosphate, 1 mM EDTA, 5 mM DTT), 100 µM substrate, 0 s to 1 h
T1 sequence (P48147 1-710): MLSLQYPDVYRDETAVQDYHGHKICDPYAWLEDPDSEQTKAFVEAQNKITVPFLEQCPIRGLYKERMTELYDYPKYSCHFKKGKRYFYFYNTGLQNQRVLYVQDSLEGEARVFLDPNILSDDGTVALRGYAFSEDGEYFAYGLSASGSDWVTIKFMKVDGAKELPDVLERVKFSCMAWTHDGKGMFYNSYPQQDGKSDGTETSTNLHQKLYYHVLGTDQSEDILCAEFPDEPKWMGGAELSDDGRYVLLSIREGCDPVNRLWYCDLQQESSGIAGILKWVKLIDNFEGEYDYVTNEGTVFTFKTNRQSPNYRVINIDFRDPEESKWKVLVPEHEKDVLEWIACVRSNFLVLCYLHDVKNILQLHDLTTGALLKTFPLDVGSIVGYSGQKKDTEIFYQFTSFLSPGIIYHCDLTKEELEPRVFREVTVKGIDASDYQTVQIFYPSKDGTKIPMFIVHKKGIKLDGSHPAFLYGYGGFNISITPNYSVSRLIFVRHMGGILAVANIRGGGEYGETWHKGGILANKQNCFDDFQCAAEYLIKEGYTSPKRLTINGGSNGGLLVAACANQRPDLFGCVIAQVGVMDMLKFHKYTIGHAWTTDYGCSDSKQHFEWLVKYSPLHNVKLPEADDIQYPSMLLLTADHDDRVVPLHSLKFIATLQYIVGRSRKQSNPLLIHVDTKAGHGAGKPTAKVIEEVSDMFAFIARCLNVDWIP
Method: Supplementary Material File S3. Cleavage by recombinant PREP
Recombinant human PREP, expressed in BL21 (DE3) cells as previously described, was […]
(Laboratory for Medicinal Chemistry, University of Antwerp) or vehicle control at pH 7.4 (0.1 M potassium phosphate, 1 mM EDTA and 5 mM DTT). 100 μM substrate ((pyr)-apelin-13, (pyr)-apelin-13(1-12), Ang II or α-MSH 1-13) or vehicle control (PBS) was added. The reaction was stopped by acidification (pH<3) with 0.1% TFA after different time periods (0 s, 30 s, 1 min, 5 min, 15 min, 30 min or 1 h) and samples were stored at -80 °C.
A search for product peaks of the different peptides was conducted.
1. Van Elzen, R.; Schoenmakers, E.; Brandt, I.; Van Der Veken, P.; Lambeir, A.M.
Ligand-induced conformational changes in prolyl oligopeptidase: A kinetic approach.

[1] = target: T2, secreted PRCP in HUVEC supernatant (Homo sapiens, UniProt P42785); experiment: Incubation of (pyr)-apelin-13 with 24 h cellular supernatant of HUVEC; format: in vitro ADME; conditions: 100 µM substrate
T2 construct: endogenous in cells; host or cells: HUVEC and HAoEC (cell lysate and culture supernatant)
T2 sequence (P42785 46-496): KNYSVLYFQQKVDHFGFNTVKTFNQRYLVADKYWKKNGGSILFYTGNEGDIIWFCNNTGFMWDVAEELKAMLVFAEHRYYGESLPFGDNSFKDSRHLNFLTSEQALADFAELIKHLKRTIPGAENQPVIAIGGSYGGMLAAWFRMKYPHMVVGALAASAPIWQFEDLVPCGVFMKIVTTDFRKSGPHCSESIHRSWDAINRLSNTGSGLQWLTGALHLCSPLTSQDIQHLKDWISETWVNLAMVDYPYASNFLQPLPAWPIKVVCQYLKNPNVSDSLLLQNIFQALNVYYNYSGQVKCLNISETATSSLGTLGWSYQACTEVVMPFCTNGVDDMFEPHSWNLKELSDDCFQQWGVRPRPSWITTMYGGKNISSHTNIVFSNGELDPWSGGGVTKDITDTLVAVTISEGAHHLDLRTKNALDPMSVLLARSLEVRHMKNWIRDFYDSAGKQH
Method: Supplementary Material File S4. Incubation of (pyr)-apelin-13 with cellular supernatant HUVEC were seeded at a density of 10 000 cells per well in 96-well plates in 100 µL full medium. After 24 h, medium was replaced by assay medium and the cells were incubated for another 24 h at 37 °C in 5% CO2. After 24 h, cell supernatants were harvested and incubated with vehicle control (1% DMSO) or 1 µM compound 8o for 15 min at 37 °C. Then, 100 μM (pyr)-apelin-13 or vehicle control (PBS) was added. The reaction was stopped by acidification (pH<3) with 0.1% TFA after 1 h and the samples were stored at -80 °C until further processing.
The experiment was independently conducted 4 times. To detect the cleavage of (pyr)-apelin-13 (m/z 1533.8), the samples were analysed by MALDI-TOF/TOF.
However, comparing this experiment with the initial experiment where (pyr)-apelin-13 was added to the cells for 24 h (Figure 1 of main manuscript), much less (pyr)-apelin-13 was […]
terminal (pyr)-apelin-13 cleavage seen in the initial experiment.
Figure S4.1: Incubation of 24 h cellular supernatant with (pyr)-apelin-13 during 1 h. (Pyr)- […]
(1 picture or pasted object on this page, not shown here)

[2] = plasma; cited from earlier work
Source text: Although (pyr)-apelin-13 has increased stability and a longer plasma half-life in comparison with the non-pyroglutamated isoforms, it still has a short half-life of only minutes. Angiotensin-converting enzyme 2 (ACE2, EC 3.4.17.23) was always considered to be the only enzyme responsible for the hydrolysis of the C-terminal Phe of (pyr)-apelin-13 [28, 29, 30], until we identified PRCP as an apelin-cleaving enzyme in 2016, during the search for new PRCP-substrates based on amino acid sequence. Although many efforts were made to elucidate the importance of this C-terminal P ...

For CSCC[C@H](NC(=O)[C@@H]1CCCN1C(=O)CNC(=O)[C@H](CCCCN)NC(=O)[C@H](Cc1cnc[nH]1)NC(=O)[C@H](CO)NC(=O)[C@H](CC(C)C)NC(=O)[C@H](CCCNC(=N)N)NC(=O)[C@@H]1CCCN1C(=O)[C@H](CCCNC(=N)N)NC(=O)[C@@H]1CCC(=O)N1)C(=O)N1CCC[C@H]1C(=O)N[C@@H](Cc1ccccc1)C(=O)O [(pyr)-apelin-13], the “C-terminal cleavage of (pyr)-apelin-13 to (pyr)-apelin-13(1–12), ratio of peak intensities in the supernatant” value (HUVEC; HUVEC 10,000 cells/well, assay medium (5% full medium in HBSS), 37 °C, 0/2/4/8/24 h, all treatment groups, MALDI-TOF/TOF, n = 4) was “significant after 24 h”, the “Enzyme dependence of cleavage of (pyr)-apelin-13 to (pyr)-apelin-13(1–12)” value (HUVEC; HUVEC pre-treated 15 min with 1 µM compound 8o (PRCP) and/or 1 µM DX600 (ACE2), 24 h, n = 4) was “PRCP-dependent” and the “Cleavage of (pyr)-apelin-13 to (pyr)-apelin-13(1-6)” value (HUVEC; HUVEC, MALDI-TOF/TOF) was “could not be detected”. The “C-terminal cleavage of (pyr)-apelin-13 to (pyr)-apelin-13(1–12), ratio of peak intensities in the supernatant” value (HAoEC; HAoEC 10,000 cells/well, 100 µM substrate, assay medium (5% full medium in HBSS), 37 °C, 0/2/4/8/24 h, all treatment groups, MALDI-TOF/TOF, n = 4) was “significant after 24 h”, the “Enzyme dependence of cleavage of (pyr)-apelin-13 to (pyr)-apelin-13(1–12)” value (HAoEC; HAoEC pre-treated 15 min with 1 µM compound 8o (PRCP) and/or 1 µM DX600 (ACE2), 100 µM substrate, 24 h, n = 4) was “PRCP- and ACE2-dependent” and the “Involvement of PRCP and ACE2 in cleavage of (pyr)-apelin-13 to (pyr)-apelin-13(1-6)” value (HAoEC; HAoEC, 1 µM compound 8o and/or 1 µM DX600, data not shown) was “none of the studied enzymes were involved”. For the same compound, the “Cleavage of (pyr)-apelin-13 to (pyr)-apelin-13(1-6)” value (HAoEC; HAoEC, all treatment groups, 100 µM substrate, MALDI-TOF/TOF, data not shown) was “significant from 8 h onwards”, the “C-terminal cleavage of (pyr)-apelin-13 to (pyr)-apelin-13(1–12), earliest observable time” value (HAoEC; control, PRCP-inhibited and ACE2-inhibited HAoEC, 100 µM substrate, 37 °C, MALDI-TOF/TOF, n = 4) was “already observable after 8 h” and the “Cleavage by recombinant human PREP” value (recombinant human PREP) was “did not cleave; also recorded: could not observe”. The “C-terminal cleavage of (pyr)-apelin-13 in cell-free 24 h HUVEC supernatant” value ([1]; 1 h, 37 °C, MALDI-TOF/TOF, 4 independent experiments) was “cleaved at its C-terminus after 1 h”, the “Extent of PRCP-mediated cleavage in cell-free HUVEC supernatant compared with the cellular experiment” value ([1]; 1 h versus 24 h with cells) was “to a much lesser extent” and the half-life [2] was “only minutes”.
